In patent publication US20260256741A1, “ANTICANCER MALEIMIDE DERIVATIVES FOR USE WITH IMMUNE CHECKPOINT BLOCKADE” (BROWN UNIVERSITY, priority 2022, published 2026):

Columns and labels:
SW480 tumor cells = experiment: Multicolor co-culture of SW480 tumor cells and donor-derived CD8+ T cells, EthD-1 dead cells; format: cell-based, human; conditions: for percentage of dead cells (average, normalized): then co-culture with donor-derived CD8+ T cells; for percentage of dead cells out of total cells (average, normalized): co-culture with donor-derived CD8+ T cells, 24 hours
Procedure: An Easy Step Human CD8+ T Cell Isolation Kit was used to isolate CD8+ T cells from a donor PBMC sample via negative selection (Cat #, 17913, Stem Cell Technologies, Vancouver, Canada).
10,000 HCT-116, SW480, or HT-29 cells were plated per well in a clear-bottom, black-walled 48-well tissue culture plate and were allowed to adhere overnight. Cells were subsequently treated with DMSO, 5 μM or 10 μM elraglusib, and/or 10,000 TALL-104 or NK-92 cells (for an effector-to-tumor ratio of 1:1) for 24 hours. CRC cells were labeled using CellTracker™ Green CMFDA (5-chloromethylfluorescein diacetate), immune cells (NK-92, TALL-104) were labeled using CellTracker™ Blue CMAC Dye (7-amino-4-chloromethylcoumarin), and ethidium homodimer-1 (EthD-1) was used as a marker of cell death (Invitrogen, Waltham, MA). 10× images were captured using a Nikon Ti-U Inverted Fluorescence Microscope and NIS-Elements F Package imaging software 3.22.00 Build 710 (Nikon Instruments Inc, USA). The number of red/green color cells in random fields was determined using thresholding and particle analysis in the Fiji modification (RRID: SCR_002285) of ImageJ and expressed as a dead/live cell ratio. Normalization was carried out by subtracting the percentage of cell death due to drug or vehicle control (DMSO) only from the percentage of dead cells observed in the co-culture of tumor and immune cells treated with the drug. At least 100 cells were evaluated per sample, with 3 independent replicates. Statistical analysis was done using GraphPad Prism 9 (RRID: SCR_002798).

HT-29 GFP+ cells = experiment: Single-color GFP+ immune cell co-culture, HT-29; format: cell-based, human; conditions: 48 hours
Procedure: 50,000 HT-29 or HCT 116 cells were seeded in a 12-well tissue culture plate and allowed to adhere overnight. They were then transduced with lentivirus containing the plasmid pLenti_CMV_GFP_Hygro [pLenti CMV GFP Hygro (656-4) was a gift from Eric Campeau & Paul Kaufman (Addgene viral prep #17446-LV; RRID: Addgene_17446)] at a multiplicity of infection of 10 with 8 μg/mL polybrene (hexadimethrine bromide [Cat #107689, Sigma Aldrich, St. Louis, MO, USA) for 24 hours before washing with PBS and replacing with fresh medium (49). The cells were then sorted for GFP-positivity using a BD FACSAria™ III Cell Sorter (RRID: SCR_016695).
5000 HT-29 GFP+ or HCT 116 GFP+ cells were plated per well in a clear-bottom, black-walled 96-well tissue culture plate and were allowed to adhere overnight. Cells were subsequently treated with DMSO, 5 μM elraglusib, and/or 5000 TALL-104 or NK-92 cells (for an effector-to-tumor ratio of 1:1) for 48 hours. Nine images were taken per well at 10× magnification using a Molecular Devices ImageXpress® Confocal HT.ai High-Content Imaging System and quantified for the number of GFP+ objects using the MetaXpress (RRID: SCR_016654) software (Molecular Devices, San Jose, CA, USA). 40× Images were also taken at 24 hours for representative images of cellular morphology changes. Statistical analysis was done using GraphPad Prism 9 (RRID: SCR_002798).

HCT-116 cells = experiment: Microarray gene expression analysis, HCT-116; format: cell-based, human
Procedure: (§1) A total of 0.5×10^6 tumor cells (HCT-116, HT-29, KM12C) were plated in a 6-well plate and allowed to adhere overnight before 24-hour treatment as indicated. 1×10^6 immune cells (NK92, TALL-104) were plated and treated with elraglusib as indicated for 24 hours. RNA was isolated from cell pellets in batches of 6 using an RNeasy Plus Mini Kit (Cat #74134, Qiagen, Hilden, Germany). Acceptable RNA concentration and quality were verified with Nanodrop and Bioanalyzer measurements. GeneChip™ Human Transcriptome Array 2.0 assays were conducted according to manufacturer instructions in two batches using randomized samples to limit batch effects (Cat #902162, Applied Biosystems, Waltham, MA, USA). Applied Biosystems Transcriptomic Analysis Console (TAC) software (RRID: SCR_016519) was used to calculate fold changes in gene expression relative to the untreated control cells. Values were considered statistically significant for p values <0.05.

KM12C cells = experiment: Microarray gene expression analysis, KM12C; format: cell-based, human
Procedure: as §1

[1] = Tolerability in the CT-26 BALB/c model (body weight, blood count, serum chemistry); design: species or system BALB/c mice; conditions: mouse, in vivo
Procedure: The experimental in vivo protocol (Protocol #19-01-003) was approved by the Institutional Animal Care and Use Committee of Brown University (Providence, RI, USA). Six to 7 weeks-old female BALB/c mice (RRID: IMSR_JAX:000651) were purchased from Taconic. 50,000 cells were suspended in 50 μL ice-cold PBS and 50 μL Matrigel (Catalog # 354234, Corning, New York, USA), and 100 uL was injected subcutaneously into the rear flanks. Once tumor volume reached at least 100 mm^3, mice were randomly assigned to one of seven groups (3 mice/group): Control (isotype), elraglusib, elraglusib+Isotype, anti-PD-1, anti-PD-L1, elraglusib+anti-PD-1, and elraglusib+anti-PD-L1. All treatments were delivered by IP injection on the following dosing schedule: Isotype (70 mg/kg, twice a week), elraglusib (70 mg/kg, twice a week), anti-PD-1 (10 mg/kg, twice a week), anti-PD-L1 (10 mg/kg, twice a week). The treatment continued until mice developed signs of discomfort from excessive tumor growth. Mice were weighed once a week to monitor signs of drug toxicity. The length (L) and width (W) of the masses were measured three times per week with a digital caliper, and the tumor volume was calculated by applying the formula: 0.5LW2. Collection of whole blood and serum was performed by cardiac puncture and sent to Antech GLP for blood cell count and chemistry tests, or in-house cytokine profiling. […]

[2] = IC-50 concentration (1 μM), 24 hours, FC cutoff >1.5, <−1.5, p<0.05

SMILES: Cn1cc(C2=C(c3coc4ccc(F)cc34)C(=O)NC2=O)c2cc3c(cc21)OCO3 [elraglusib, 3-(5-fluorobenzofuran-3-yl)-4-(5-methyl-5H-[1,3]dioxolo[4,5-f]indol-7-yl)-1H-pyrrole-2,5-dione]
- percentage of dead cells (average, normalized) (SW480 tumor cells; 10 μM for 24 hours): 70%
- percentage of dead cells out of total cells (average, normalized) (SW480 tumor cells; 5 μM): 65%
- percentage of dead cells out of total cells (average, normalized) (SW480 tumor cells; 10 μM): 75%
- tumor cell death in SW480 monocultures (SW480 tumor cells; drug only, no immune cells): limited tumor cell death
- percentage of dead cells (average, normalized) (SW480 tumor cells; tumor cells pre-treated with 5 μM for 24 hours): 65%
- tumor cell death (HT-29 GFP+ cells; 5 μM elraglusib and NK-92 vs immune cell only and DMSO only): increased tumor cell death
- tumor cell death (HT-29 GFP+ cells; 5 μM elraglusib and TALL-104 vs drug-only or T cell-only): increased tumor cell death
- CMTM4 gene expression fold change (HCT-116 cells; 24 hours vs DMSO): −1.84 FC
- NEK2 gene expression fold change (HCT-116 cells; 24 hours vs DMSO): −2.21 FC
- PPP1R1C gene expression fold change (HCT-116 cells; 24 hours vs DMSO): 1.78 FC
- downregulated genes in VEGFA-VEGFR2 signaling pathway (HCT-116 cells; 24 hours vs DMSO): 29
- differentially expressed genes post-treatment (HCT-116 cells; [2]): 340
- GZMA (granzyme A) gene expression fold change (KM12C cells; 24 hours vs DMSO): 1.53 FC
- downregulated genes in VEGFA-VEGFR2 signaling pathway (KM12C cells; 24 hours vs DMSO): 48
- differentially expressed genes post-treatment (KM12C cells; [2]): 1,032
- renal function (BUN, creatinine, electrolytes) [1]: maintained normal renal function
